In EP0908457B1, “3-(1,2-benzisothiazol- and isoxazol-5-Y1)-2,4(1H,3H)-pyrimidinedione or thione and 3-(1,2-benzisothiazol- and isoxazol-5-y1)-4(3H)-pyrimidinone or thione herbicidal agents” (BASF AKTIENGESELLSCHAFT, priority 1997, dated 1999):

Legend:
Type in all cases: in vivo
[1] = tested on: Echinochloa oryzoides (Ard.) Fritsch.; experiment: Preemergence weed control under flooded paddy conditions, ECHORC (Watergrass (Calif.)); details: flooded paddy; for ECHORC: herbicidal effect rating 0-9, three to four weeks after treatment; for herbicidal effect rating, ECHORC: meaning of each grade not given here
[2] = tested on: Monochoria vaginalis, Presl.; experiment: Preemergence weed control under flooded paddy conditions, MOOVA (Monochoria); details: flooded paddy; for MOOVA: herbicidal effect rating 0-9, three to four weeks after treatment; for herbicidal effect rating, MOOVA: meaning of each grade not given here
[3] = tested on: Cyperus serotinus, Rottb.; experiment: Preemergence weed control under flooded paddy conditions, CYPSE (Flatsedge); details: for CYPSE: herbicidal effect rating 0-9, three to four weeks after treatment; for herbicidal effect rating, CYPSE: meaning of each grade not given here
Sagittaria pygmaea, L. = experiment: Preemergence weed control under flooded paddy conditions, SAGPY (Arrowhead (Pygmaea)); details: flooded paddy; for SAGPY: herbicidal effect rating 0-9, three to four weeks after treatment; for herbicidal effect rating, SAGPY: meaning of each grade not given here
Cyperus iria = experiment: Preemergence weed control under flooded paddy conditions, CYPIR (Rice Flatsedge); details: flooded paddy; for CYPIR: herbicidal effect rating 0-9, three to four weeks after treatment; for herbicidal effect rating, CYPIR: meaning of each grade not given here
[4] = 0.0320 kg/ha, preemergence weeds
[5] = 0.0620 kg/ha, preemergence weeds
[6] = 0.1250 kg/ha, preemergence weeds
[7] = 0.2500 kg/ha, preemergence weeds
[8] = 0.0320 kg/ha, preemergence, rated three to four weeks after treatment
[9] = 0.0620 kg/ha, preemergence, rated three to four weeks after treatment
[10] = 0.1250 kg/ha, preemergence, rated three to four weeks after treatment
[11] = 0.2500 kg/ha, preemergence, rated three to four weeks after treatment
[12] = 0.0313 kg/ha, preemergence weeds, rated three to four weeks after treatment
[13] = 0.0625 kg/ha, preemergence weeds, rated three to four weeks after treatment
[14] = 0.1250 kg/ha, preemergence weeds, rated three to four weeks after treatment
[15] = 0.2500 kg/ha, preemergence weeds, rated three to four weeks after treatment
[16] = Rate 0.0320 kg/ha, preemergence, rated 3-4 weeks after treatment
[17] = Rate 0.0620 kg/ha, preemergence, rated 3-4 weeks after treatment
[18] = Rate 0.1250 kg/ha, preemergence, rated 3-4 weeks after treatment
[19] = Rate 0.2500 kg/ha, preemergence, rated 3-4 weeks after treatment
[20] = 0.0313 kg/ha, preemergence, rated three to four weeks after treatment
[21] = 0.0625 kg/ha, preemergence, rated three to four weeks after treatment

## 2,4(1H,3H)-Pyrimidinedione, 1-methyl-3-[(2-methylbutyryl)-1,2-benzisothiazol-5-yl]-6-(trifluoromethyl)- [Example 433]
[1]; [4]
  ECHORC: 8.0
[1]; [5]
  ECHORC: 9.0
[1]; [6]
  ECHORC: 9.0
[1]; [7]
  ECHORC: 9.0
[2]; [4]
  MOOVA: 8.5
[2]; [5]
  MOOVA: 9.0
[2]; [6]
  MOOVA: 9.0
[2]; [7]
  MOOVA: 9.0
[3]; [4]
  CYPSE: 0.0
[3]; [5]
  CYPSE: 6.0
[3]; [6]
  CYPSE: 7.5
[3]; [7]
  CYPSE: 7.5
Sagittaria pygmaea, L.; [4]
  SAGPY: 2.0
Sagittaria pygmaea, L.; [5]
  SAGPY: 4.5
Sagittaria pygmaea, L.; [6]
  SAGPY: 6.0
Sagittaria pygmaea, L.; [7]
  SAGPY: 7.0
Cyperus iria; [4]
  CYPIR: 5.5
Cyperus iria; [5]
  CYPIR: 8.5
Cyperus iria; [6]
  CYPIR: 9.0
Cyperus iria; [7]
  CYPIR: 9.0

## 2,4(1H,3H)-Pyrimidinedione, 3-[3-(hydroxymethyl)-1,2-benzisothiazol-5-yl]-1-methyl-6-(trifluoromethyl)-, chlorophenylacetate (ester) [Example 504]
[1]; [8]
  ECHORC herbicidal rating: 2.0
[1]; [9]
  ECHORC herbicidal rating: 3.0
[1]; [10]
  ECHORC herbicidal rating: 6.0
[1]; [11]
  ECHORC herbicidal rating: 7.0
[2]; [8]
  MOOVA herbicidal rating: 6.0
[2]; [9]
  MOOVA herbicidal rating: 8.0
[2]; [10]
  MOOVA herbicidal rating: 9.0
[2]; [11]
  MOOVA herbicidal rating: 9.0
[3]; [8]
  CYPSE herbicidal rating: 0.0
[3]; [9]
  CYPSE herbicidal rating: 0.0
[3]; [10]
  CYPSE herbicidal rating: 0.0
Sagittaria pygmaea, L.; [8]
  SAGPY herbicidal rating: 0.0
Sagittaria pygmaea, L.; [11]
  SAGPY herbicidal rating: 7.0
Cyperus iria; [8]
  CYPIR herbicidal rating: 4.0
Cyperus iria; [9]
  CYPIR herbicidal rating: 7.0
Cyperus iria; [10]
  CYPIR herbicidal rating: 9.0
Cyperus iria; [11]
  CYPIR herbicidal rating: 9.0

## Cc1ccc(OCC(=O)OC(C)C(=O)O)c(-c2nsc3ccc(-n4c(=O)cc(C(F)(F)F)n(C)c4=O)cc23)c1 (racemic) [Example 190, 2-{{2-{5-[3,6-Dihydro-3-methyl-2,6-dioxo-4-(trifluoromethyl)-1(2H)-pyrimidinyl]-1,2-benzisothiazol-3-yl}-p-tolyl}oxy}acetoxy}-propionic acid, DL-]
[1]; [12]
  herbicidal effect rating, ECHORC: 2.0
[1]; [13]
  herbicidal effect rating, ECHORC: 4.0
[1]; [14]
  herbicidal effect rating, ECHORC: 7.0
[1]; [15]
  herbicidal effect rating, ECHORC: 8.0
[2]; [12]
  herbicidal effect rating, MOOVA: 9.0
[2]; [13]
  herbicidal effect rating, MOOVA: 9.0
[2]; [14]
  herbicidal effect rating, MOOVA: 9.0
[2]; [15]
  herbicidal effect rating, MOOVA: 9.0
[3]; [12]
  herbicidal effect rating, CYPSE: 0.0
[3]; [13]
  herbicidal effect rating, CYPSE: 0.0
[3]; [14]
  herbicidal effect rating, CYPSE: 0.0
[3]; [15]
  herbicidal effect rating, CYPSE: 0.0
Sagittaria pygmaea, L.; [12]
  herbicidal effect rating, SAGPY: 0.0
Sagittaria pygmaea, L.; [13]
  herbicidal effect rating, SAGPY: 0.0
Sagittaria pygmaea, L.; [14]
  herbicidal effect rating, SAGPY: 0.0
Sagittaria pygmaea, L.; [15]
  herbicidal effect rating, SAGPY: 0.0
Cyperus iria; [12]
  herbicidal effect rating, CYPIR: 0.0
Cyperus iria; [13]
  herbicidal effect rating, CYPIR: 0.0
Cyperus iria; [14]
  herbicidal effect rating, CYPIR: 2.0
Cyperus iria; [15]
  herbicidal effect rating, CYPIR: 4.0

## Cc1ccc(OCC(=O)OCC2CCOC2)c(-c2nsc3ccc(-n4c(=O)cc(C(F)(F)F)n(C)c4=O)cc23)c1 (racemic) [Example 535, Acetic acid, {{2-{5-[3,6-dihydro-3-methyl-2,6-dioxo-4-(trifluoromethyl)-1(2H)-pyrimidinyl]-1,2-benzisothiazol-3-yl}-p-tolyl}oxy}-, (tetrahydro-3-furyl)methyl ester, DL-]
[1]; [16]
  herbicidal effect rating, ECHORC: 0.0
[1]; [17]
  herbicidal effect rating, ECHORC: 3.0
[1]; [18]
  herbicidal effect rating, ECHORC: 3.0
[1]; [19]
  herbicidal effect rating, ECHORC: 4.0
[2]; [16]
  herbicidal effect rating, MOOVA: 6.0
[2]; [17]
  herbicidal effect rating, MOOVA: 9.0
[2]; [18]
  herbicidal effect rating, MOOVA: 9.0
[2]; [19]
  herbicidal effect rating, MOOVA: 9.0
[3]; [16]
  herbicidal effect rating, CYPSE: 0.0
[3]; [17]
  herbicidal effect rating, CYPSE: 3.0
[3]; [18]
  herbicidal effect rating, CYPSE: 5.0
[3]; [19]
  herbicidal effect rating, CYPSE: 5.0
Sagittaria pygmaea, L.; [16]
  herbicidal effect rating, SAGPY: 0.0
Sagittaria pygmaea, L.; [17]
  herbicidal effect rating, SAGPY: 0.0
Sagittaria pygmaea, L.; [18]
  herbicidal effect rating, SAGPY: 3.0
Sagittaria pygmaea, L.; [19]
  herbicidal effect rating, SAGPY: 3.0
Cyperus iria; [16]
  herbicidal effect rating, CYPIR: 0.0
Cyperus iria; [17]
  herbicidal effect rating, CYPIR: 6.0
Cyperus iria; [18]
  herbicidal effect rating, CYPIR: 9.0
Cyperus iria; [19]
  herbicidal effect rating, CYPIR: 9.0

## CCOC(=O)C1CCC(OC(=O)COc2ccc(C)cc2-c2nsc3ccc(-n4c(=O)cc(C(F)(F)F)n(C)c4=O)cc23)CC1 (single isomer, unassigned; isomer a) [Example 524, Acetic acid, {{2-{5-[3,6-dihydro-3-methyl-2,6-dioxo-4-(trifluoromethyl)-1(2H)-pyrimidinyl]-1,2-benzisothiazol-3-yl}-p-tolyl}oxy}-, ester with ethyl 4-hydroxycyclohexanecarboxylate, isomer A]
[1]; [16]
  herbicidal effect rating, ECHORC: 7.0
[1]; [17]
  herbicidal effect rating, ECHORC: 9.0
[1]; [18]
  herbicidal effect rating, ECHORC: 9.0
[1]; [19]
  herbicidal effect rating, ECHORC: 9.0
[2]; [16]
  herbicidal effect rating, MOOVA: 9.0
[2]; [17]
  herbicidal effect rating, MOOVA: 9.0
[2]; [18]
  herbicidal effect rating, MOOVA: 9.0
[2]; [19]
  herbicidal effect rating, MOOVA: 9.0
[3]; [16]
  herbicidal effect rating, CYPSE: 0.0
[3]; [17]
  herbicidal effect rating, CYPSE: 0.0
[3]; [18]
  herbicidal effect rating, CYPSE: 2.0
[3]; [19]
  herbicidal effect rating, CYPSE: 6.0
Sagittaria pygmaea, L.; [16]
  herbicidal effect rating, SAGPY: 0.0
Sagittaria pygmaea, L.; [17]
  herbicidal effect rating, SAGPY: 0.0
Sagittaria pygmaea, L.; [18]
  herbicidal effect rating, SAGPY: 0.0
Sagittaria pygmaea, L.; [19]
  herbicidal effect rating, SAGPY: 0.0
Cyperus iria; [16]
  herbicidal effect rating, CYPIR: 2.0
Cyperus iria; [17]
  herbicidal effect rating, CYPIR: 2.0
Cyperus iria; [18]
  herbicidal effect rating, CYPIR: 4.0
Cyperus iria; [19]
  herbicidal effect rating, CYPIR: 7.0

## CCOC(=O)C1CCC(OC(=O)COc2ccc(C)cc2-c2nsc3ccc(-n4c(=O)cc(C(F)(F)F)n(C)c4=O)cc23)CC1 (single isomer, unassigned; isomer b) [Example 525, Acetic acid, {{2-{5-[3,6-dihydro-3-methyl-2,6-dioxo-4-(trifluoromethyl)-1(2H)-pyrimidinyl)-1,2-benzisothiazol-3-yl}-p-tolyl}oxy}-, ester with ethyl 4-hydroxycyclohexanecarboxylate, isomer B]
[1]; [16]
  herbicidal effect rating, ECHORC: 6.0
[1]; [17]
  herbicidal effect rating, ECHORC: 7.0
[1]; [18]
  herbicidal effect rating, ECHORC: 9.0
[1]; [19]
  herbicidal effect rating, ECHORC: 9.0
[2]; [16]
  herbicidal effect rating, MOOVA: 9.0
[2]; [17]
  herbicidal effect rating, MOOVA: 9.0
[2]; [18]
  herbicidal effect rating, MOOVA: 9.0
[2]; [19]
  herbicidal effect rating, MOOVA: 9.0
[3]; [16]
  herbicidal effect rating, CYPSE: 0.0
[3]; [17]
  herbicidal effect rating, CYPSE: 0.0
[3]; [18]
  herbicidal effect rating, CYPSE: 0.0
[3]; [19]
  herbicidal effect rating, CYPSE: 0.0
Sagittaria pygmaea, L.; [16]
  herbicidal effect rating, SAGPY: 0.0
Sagittaria pygmaea, L.; [17]
  herbicidal effect rating, SAGPY: 0.0
Sagittaria pygmaea, L.; [18]
  herbicidal effect rating, SAGPY: 0.0
Sagittaria pygmaea, L.; [19]
  herbicidal effect rating, SAGPY: 0.0
Cyperus iria; [16]
  herbicidal effect rating, CYPIR: 0.0
Cyperus iria; [17]
  herbicidal effect rating, CYPIR: 2.0
Cyperus iria; [18]
  herbicidal effect rating, CYPIR: 2.0
Cyperus iria; [19]
  herbicidal effect rating, CYPIR: 4.0

## CC(=O)OCc1nsc2ccc(-n3c(=O)cc(C(F)(F)F)n(C)c3=O)cc12 [Example 32, 3-[3-(Hydroxymethyl)-1,2-benzisothiazol-5-yl]-1-methyl-6-(trifluoromethyl)-2,4(1H,3H)-pyrimidinedione, acetate ester]
[1]; [20]
  herbicidal effect rating, ECHORC: 2.0
[1]; [21]
  herbicidal effect rating, ECHORC: 3.5
[1]; [10]
  herbicidal effect rating, ECHORC: 4.5
[1]; [11]
  herbicidal effect rating, ECHORC: 7.5
[2]; [20]
  herbicidal effect rating, MOOVA: 8.0
[2]; [21]
  herbicidal effect rating, MOOVA: 9.0
[2]; [10]
  herbicidal effect rating, MOOVA: 9.0
[2]; [11]
  herbicidal effect rating, MOOVA: 9.0
[3]; [20]
  herbicidal effect rating, CYPSE: 0.0
[3]; [21]
  herbicidal effect rating, CYPSE: 0.0
[3]; [10]
  herbicidal effect rating, CYPSE: 2.0
[3]; [11]
  herbicidal effect rating, CYPSE: 7.0
Sagittaria pygmaea, L.; [20]
  herbicidal effect rating, SAGPY: 0.0
Sagittaria pygmaea, L.; [21]
  herbicidal effect rating, SAGPY: 0.0
Sagittaria pygmaea, L.; [10]
  herbicidal effect rating, SAGPY: 2.0
Sagittaria pygmaea, L.; [11]
  herbicidal effect rating, SAGPY: 9.0
Cyperus iria; [20]
  herbicidal effect rating, CYPIR: 4.0
Cyperus iria; [21]
  herbicidal effect rating, CYPIR: 6.0
Cyperus iria; [10]
  herbicidal effect rating, CYPIR: 8.0
Cyperus iria; [11]
  herbicidal effect rating, CYPIR: 9.0

## Cn1c(C(F)(F)F)cc(=O)n(-c2ccc3snc(C(SCCO)SCCO)c3c2)c1=O [Example 419, 1,2-Benzisothiazole-3-carboxaldehyde, 5-[3,6-dihydro-3-methyl-2,6-dioxo-4-(trifluoromethyl)-1(2H)-pyrimidinyl]-, 3-[bis(2-hydroxyethyl)dithioacetal]]
[1]; [5]
  ECHORC: 0.0
[1]; [6]
  ECHORC: 2.0
[1]; [7]
  ECHORC: 7.0
[2]; [5]
  MOOVA: 0.0
[2]; [6]
  MOOVA: 4.0
[2]; [7]
  MOOVA: 5.0
[3]; [5]
  CYPSE: 0.0
[3]; [6]
  CYPSE: 0.0
[3]; [7]
  CYPSE: 0.0
Cyperus iria; [5]
  CYPIR: 0.0
Cyperus iria; [6]
  CYPIR: 3.0
Cyperus iria; [7]
  CYPIR: 6.0
